The text below walks through data of US11725000B2, “Apoptosis inhibitors” (National Institute of Biological Sciences, Beijing, priority 2017, dated 2023).

Where a SMILES comes first, the peptide text is derived from it. The star is where a group is joined. Cbz = O=C(OCc1ccccc1)*; CH2F = FC* A value given as a limit tells only on which side of the number the result lay.

Common to all, as to assay type: cell-based
The test system of assay [1] is U2OS_Bim cells. The assay can be described thus: Apoptosis inhibition assay (Bim-induced apoptosis, cell viability by ATP level). The settings on record: U2OS_Bim cells. Summed up: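 Apoptosis was triggered by doxycycline (0.1 μg/mL) induction of Bim, one hour after compound addition to U2OS_Bim cells. Survival was measured after 24 h from cellular ATP (CellTiter-Glo), relative to DMSO, with zVAD at 20 μM as rescue control. Data are duplicate means, some estimated from preliminary results.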

The subject of assay [2] is U2OS_Bim cells. Nature of the assay: Irreversibility binding assay (cellular wash/no wash assay). The source says: It has been reported that sulfone can serve as a good leaving group in SN2 substitution reactions when linked to electron withdrawing groups. Active compounds in our SAR study all contained a —CF3 substituted pyrimidine ring linked to the sulfone group. Replacement of CF3 at the R2 position with groups with less powerful electron-withdrawing properties totally abolished the apoptosis inhibition activity. […] To test the reactivity of representative TC09 compounds, we performed model reactions using different nucleophilic reagent (cysteine, lysine, and glutathione) with compounds 1, 6, and 27. […] To further explore the binding mode of the active compounds in a cellular context, we next performed a cellular wash/no wash assay for determining the reversibility of compound-target interactions. Following compound incubation, one subset of cells was washed several times to eliminate the free test compounds, and the other subset was not washed. Apoptosis was induced and the viability of cells was then measured and EC50 under wash conditions was compared with no wash conditions.[9]
U2OS_Bim cells were plated at a density of 3000 cells per well in 96-well plates. 24 hrs later, duplicate sets of cells were treated with experimental compounds for 3 hrs. One subset of these cells were treated with 0.1 μg/mL DOX to trigger apoptosis. The remaining subset of cells was washed free of the experimental compound using warmed medium, 3 times, before being treated with 0.1 μg/mL DOX. 24 hours after DOX addition, cell viability was determined by measuring the ATP levels using a CellTiter-Glo kit. Cell survival rate was calculated. zVAD (20 μM) was used as a positive control.

Assay [3] has as its system U2OS_Bim cells. Nature of the assay: Immunostaining of cytochrome c (mitochondrial cytochrome c release). The settings on record: immunofluorescence after induced Bim overexpression. The method, then: U2OS_Bim cells were plated in Lab-Tek eight-chambered slides (Thermo Scientific). 24 hrs later, cells were treated with experimental compounds for one hour. Cell were washed by PBS for 10 min and fixed with 2% PFA for 30 min at room temperature. Following three additional washes in PBS, cells were incubated in PBS containing 0.1% Triton X-100 for 10 min. Cytochrome c antibody (diluted in 5% BSA in PBST) was incubated with the cells at 4° C. overnight. Cells were then washed three times with PBST and incubated with secondary antibody at room temperature for 1 h. Following three additional washes in PBS, the slides were covered and sealed and then examined with a Zeiss LSM 510 confocal microscope.

For assay [4], the system named is U2OS_Bim cells. Nature of the assay: Long-term cell survival under constant apoptotic insult (DOX). The procedure:
We therefore tested the long-term impact of TC09 compounds on cells experiencing constant apoptotic insult. […] Remarkably, in the presence of tested TC09 compounds, the cells continued to proliferate, similar to cells grown under normal conditions.
The U2OS_Bim cells were all killed when DOX was added, even in the presence of z-VAD-FMK.

The test system of assay [5] is U2OS_Bim cells. Nature of the assay: TMRM staining (mitochondrial membrane potential). The settings on record: DOX induction of Bim. The method, then:
U2OS_Bim cells were plated at a density of 3000 cells per well in 96-well optical plates. 24 hrs later, cells were treated with experimental compounds for one hour. The cells were then treated with 0.1 μg/mL DOX to trigger apoptosis. 4 hrs later, 50 nM TMRM was added to each well and incubated for 30 min. Cells were washed 3 times with warmed PBS buffer and examined with a Zeiss LSM 510 confocal microscope.

Setting [6] is: means of duplicates, numbering of Tables 4a/4b, read-out: EC50.
The mark [7] stands for this setting: no wash, 3 hrs compound incubation before DOX, read-out: EC50 (no wash).
[8] abbreviates: estimated based on preliminary results, numbering of Tables 4a/4b, read-out: EC50.

With `Cc1ccc(O)c(NC(=O)CCCS(=O)(=O)c2nc(-c3cccs3)cc(C(F)(F)F)n2)c1` [Hit], the EC50 in the assay with U2OS_Bim cells [1] (DOX-induced Bim overexpression, viability 24 h after DOX, read-out: EC50) is 4.01 µM; with U2OS_Bim cells [1] (setting [6]) it was 1 to 10 µM; with U2OS_Bim cells [1] (read-out: EC50 in increasing cell survival rates following apoptosis induced by Bim overexpression) it was 4 µM; with U2OS_Bim cells [2] (cells washed free of compound 3 times before DOX, read-out: EC50 (wash assay)), 3.9 µM; with U2OS_Bim cells [2] (setting [7]) it was 4.01 µM. Besides, the “mitochondrial cytochrome c release” value in the assay on U2OS_Bim cells [3] was “could prevent cytochrome c release”.
With `COC(=O)C[C@H](NC(=O)[C@H](C)NC(=O)[C@@H](NC(=O)OCc1ccccc1)C(C)C)C(=O)CF` [zVAD] (Cbz-Val-Ala-Asp(OMe)-CH2F), the “cell colonies after 1 week culture with DOX (crystal violet)” value in the assay on U2OS_Bim cells [4] (1 week) is recorded as “all killed”. Moreover, in the assay with U2OS_Bim cells [4] (constant apoptotic insult, up to third day), the “cell survival/proliferation over days after addition of DOX” value is on record as “clearly delayed death, most of the cells had died by the third day”. Further, in the assay with U2OS_Bim cells [2] (setting [7]), the EC50 turned out to be 69.2 µM. Further, the “mitochondria membrane potential and TMRM enrichment after apoptosis induction” value in the assay on U2OS_Bim cells [5] is recorded as “cannot be achieved”.
Regarding `Cc1cc(-c2cc(F)c(=O)n(Cc3cccc(N(C)C)c3)c2)nc(S(=O)(=O)CCC(OCc2ccccc2F)c2ccccc2)n1` (stereo not shown) [Compound 339], in the assay on U2OS_Bim cells [1] (estimated (*Est.) / preliminary results, numbering of Tables 4a/4b, read-out: EC50), the EC50 is 0.001 to 1 µM.
Regarding `CS(=O)(=O)c1nc(-c2ccc[nH]2)cc(C(F)(F)F)n1` [Compound 84, 2-(methylsulfonyl)-4-(1H-pyrrol-2-yl)-6-(trifluoromethyl)pyrimidine], the EC50 in the assay with U2OS_Bim cells [1] (setting [6]) was 1 to 10 µM.
`COc1ccn(Cn2cc(-c3cc(C(F)(F)F)nc(S(C)(=O)=O)n3)ccc2=O)c1` [Compound 260]: the EC50 in the assay on U2OS_Bim cells [1] (setting [8]) is less than 10 µM.
Consider `COc1ccc(Cn2cc(-c3cc(C)nc(S(=O)(=O)CCC(C)=O)n3)cc(F)c2=O)cc1F` [Compound 303, 3-fluoro-1-(3-fluoro-4-methoxybenzyl)-5-(6-methyl-2-((3-oxobutyl)sulfonyl)pyrimidin-4-yl)pyridin-2 (1H)-one], for which the EC50 with U2OS_Bim cells [1] (setting [6]) was less than 100 µM.
In the case of `COc1ccc(Cn2cc(-c3cc(-c4cncs4)nc(S(C)(=O)=O)n3)ccc2=O)cc1OC` [Compound 215], the half-maximal effective concentration (EC50) with U2OS_Bim cells [1] (setting [8]) is less than 10 µM.
Take `COc1ccc(Cn2ccc(-c3cc(C(F)(F)F)nc(S(C)(=O)=O)n3)c2)cc1` [Compound 91, 4-(1-(4-methoxybenzyl)-1H-pyrrol-3-yl)-2-(methylsulfonyl)-6-(trifluoromethyl)pyrimidine]: the EC50 in the assay on U2OS_Bim cells [1] (setting [6]) is less than 100 µM.
For the compound `Cc1cc(-c2cc(F)c(=O)n(Cc3ccc4c(c3)OCO4)c2)nc(S(=O)(=O)CCC(OCc2ccccc2F)c2ccccc2)n1` (stereo not shown) [Compound 318, 1-(benzo[d][1,3]dioxol-5-ylmethyl)-3-fluoro-5-(2-(3-(2-fluorobenzyloxy)-3-phenylpropylsulfonyl)-6-methylpyrimidin-4-yl)pyridin-2 (1H)-one], the EC50 in the assay on U2OS_Bim cells [1] (setting [6]) is 0.001 to 1 µM.
For `CNc1cc(Cn2cc(-c3cc(C(F)(F)F)nc(S(C)(=O)=O)n3)ccc2=O)ccc1OC` [Compound 238], the EC50 in the assay with U2OS_Bim cells [1] (setting [8]) is less than 10 µM.
Turning to `CNc1ccc(Cn2cc(-c3cc(C(F)(F)F)nc(S(C)(=O)=O)n3)ccc2=O)cc1OC` [Compound 236], the half-maximal effective concentration (EC50) in the assay with U2OS_Bim cells [1] (setting [8]) was less than 10 µM.
Take `COc1cc(Cl)c(Cn2cc(-c3cc(C(F)(F)F)nc(S(=O)(=O)CCCC(=O)N4CCOCC4)n3)ccc2=O)cc1OC` [Compound 157, 1-(2-chloro-4,5-dimethoxybenzyl)-5-(2-((4-morpholino-4-oxobutyl)sulfonyl)-6-(trifluoromethyl)pyrimidin-4-yl)pyridin-2 (1H)-one]: the EC50 in the assay with U2OS_Bim cells [1] (setting [6]) fell in the range of 0.001 to 1 µM.
On to `CS(=O)(=O)c1nc(-c2cccc(C(N)=O)c2)cc(C(F)(F)F)n1` [Compound 66, 3-(2-(methylsulfonyl)-6-(trifluoromethyl)pyrimidin-4-yl)benzamide], for which the EC50 in the assay with U2OS_Bim cells [1] (setting [6]) is 1 to 10 µM.
`COc1ccc(OC2CCCN(c3cc(C(F)(F)F)nc(S(C)(=O)=O)n3)C2)cc1OC` (stereo not shown) [Compound 274, 4-(3-(3,4-dimethoxyphenoxy)piperidin-1-yl)-2-(methylsulfonyl)-6-(trifluoromethyl)pyrimidine]: in the assay with U2OS_Bim cells [1] (setting [8]), the concentration giving a half-maximal response (EC50) was less than 100 µM.

A word on the EC50: it is the concentration needed to bring the measured effect to its halfway point.
